From paper PMC6848746 (Psychopharmacology, 2019) come the findings set out here.

For assay [1], the target named is DAT (Rattus norvegicus, UniProt P23977). The assay is described as follows: DAT-mediated release of [3H]MPP+ from rat brain synaptosomes. The assay is classed as biochemical. The conditions noted are these: for DAT/NET ratio: (DAT EC50)^-1 ÷ (NET EC50)^-1; for DAT/NET ratio / DAT/SERT ratio: higher value = greater DAT selectivity; for DAT/SERT ratio: (DAT EC50)^-1 ÷ (SERT EC50)^-1; for fold lower release potency at DAT: relative to SERT (MDAI: relative to SERT and NET), synaptosomal release; for Emax: read-out: DAT-mediated release Emax.

The target in a further assay is SERT (Rattus norvegicus, UniProt P31652). The assay is described as follows: SERT-mediated release of [3H]5-HT from rat brain synaptosomes. The assay is classed as biochemical. The settings on record: for Emax: read-out: SERT-mediated release Emax.
Another assay addresses T1, 5-HT1A (Homo sapiens, UniProt P08908).
T1 sequence (P08908 1-422): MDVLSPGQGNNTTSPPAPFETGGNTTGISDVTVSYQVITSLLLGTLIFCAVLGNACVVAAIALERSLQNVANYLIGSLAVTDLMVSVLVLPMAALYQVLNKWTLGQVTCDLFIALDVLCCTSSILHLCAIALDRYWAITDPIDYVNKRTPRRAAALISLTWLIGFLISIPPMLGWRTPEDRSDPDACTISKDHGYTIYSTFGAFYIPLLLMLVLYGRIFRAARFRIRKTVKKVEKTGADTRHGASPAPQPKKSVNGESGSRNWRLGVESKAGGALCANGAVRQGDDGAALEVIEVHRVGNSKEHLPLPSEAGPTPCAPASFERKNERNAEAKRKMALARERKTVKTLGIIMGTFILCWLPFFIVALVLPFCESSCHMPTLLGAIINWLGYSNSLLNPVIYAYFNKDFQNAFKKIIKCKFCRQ
As to the kind of experiment: Radioligand binding.

The next assay deals with 5-HT1B (Homo sapiens, UniProt P28222). The assay is described as follows: Radioligand binding.
Another assay has as its target 5-HT1E (Homo sapiens, UniProt P28566). The assay is described as follows: Radioligand binding.
The next assay concerns the target 5-HT2A (Homo sapiens, UniProt P28223). As to the kind of experiment: Radioligand binding.
The target of another assay is 5-HT5A (Homo sapiens, UniProt P47898). As to the kind of experiment: Radioligand binding.
Another assay addresses 5-HT7 (Homo sapiens, UniProt P34969). The assay is described as follows: Radioligand binding.
The target in another assay is T2, α2A (Homo sapiens, UniProt P08913).
T2 sequence (P08913 1-465): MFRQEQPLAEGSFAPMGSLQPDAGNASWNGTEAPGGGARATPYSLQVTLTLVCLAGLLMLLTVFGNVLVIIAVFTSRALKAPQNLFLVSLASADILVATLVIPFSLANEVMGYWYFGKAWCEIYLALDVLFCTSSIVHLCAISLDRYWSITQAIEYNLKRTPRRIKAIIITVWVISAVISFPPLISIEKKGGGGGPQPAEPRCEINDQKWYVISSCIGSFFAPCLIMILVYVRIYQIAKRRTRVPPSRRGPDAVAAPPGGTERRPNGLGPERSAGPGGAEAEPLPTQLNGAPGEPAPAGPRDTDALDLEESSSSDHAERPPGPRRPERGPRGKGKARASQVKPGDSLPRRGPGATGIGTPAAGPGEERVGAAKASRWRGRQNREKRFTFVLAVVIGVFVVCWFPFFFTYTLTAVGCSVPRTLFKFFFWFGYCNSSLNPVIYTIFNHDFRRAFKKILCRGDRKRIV
As to the kind of experiment: Radioligand binding. The settings on record: for fold lower affinity for α2A compared to 2-AI: binding, [3H]rauwolscine.

The target in the next assay is T3, α2B (Homo sapiens, UniProt P18089).
T3 sequence (P18089 1-450): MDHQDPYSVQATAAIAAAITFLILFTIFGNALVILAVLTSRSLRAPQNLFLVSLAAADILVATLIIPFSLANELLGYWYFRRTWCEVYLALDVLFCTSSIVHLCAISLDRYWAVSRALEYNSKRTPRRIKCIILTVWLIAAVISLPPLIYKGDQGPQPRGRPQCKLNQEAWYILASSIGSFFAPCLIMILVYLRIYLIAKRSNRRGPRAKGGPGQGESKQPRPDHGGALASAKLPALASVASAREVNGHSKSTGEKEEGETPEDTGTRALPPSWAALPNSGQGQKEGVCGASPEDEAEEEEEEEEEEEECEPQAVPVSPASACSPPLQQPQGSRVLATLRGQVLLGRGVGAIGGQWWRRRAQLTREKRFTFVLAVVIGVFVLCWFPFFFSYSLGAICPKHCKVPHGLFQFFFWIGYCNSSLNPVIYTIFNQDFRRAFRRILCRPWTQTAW
The assay is described as follows: Radioligand binding. The conditions noted are these: for fold lower affinity for α2B compared to 2-AI: binding, [3H]rauwolscine.

The next assay addresses β1 (Homo sapiens, UniProt P08588). The assay is described as follows: Radioligand binding.
For a further assay, the target named is D1 (Homo sapiens, UniProt P21728). The assay is described as follows: Radioligand binding.
The target of another assay is D2 (Homo sapiens, UniProt P14416). The assay is described as follows: Radioligand binding.
The target of the next assay is D3 (Homo sapiens, UniProt P35462). The assay is described as follows: Radioligand binding.
A further assay deals with T4, D4 (Homo sapiens, UniProt P21917).
T4 sequence (P21917 1-419): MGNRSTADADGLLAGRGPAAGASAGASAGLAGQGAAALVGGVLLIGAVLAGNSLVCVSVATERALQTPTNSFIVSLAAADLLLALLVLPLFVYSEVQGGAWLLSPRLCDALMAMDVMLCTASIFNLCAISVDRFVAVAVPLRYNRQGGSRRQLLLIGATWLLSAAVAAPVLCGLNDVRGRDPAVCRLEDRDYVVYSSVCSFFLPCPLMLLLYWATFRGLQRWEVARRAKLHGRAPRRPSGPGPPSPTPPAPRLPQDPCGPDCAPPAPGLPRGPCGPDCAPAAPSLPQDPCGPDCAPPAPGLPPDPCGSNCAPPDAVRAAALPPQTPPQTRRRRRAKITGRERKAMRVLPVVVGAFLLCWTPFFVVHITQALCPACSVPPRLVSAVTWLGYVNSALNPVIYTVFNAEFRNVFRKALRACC
The assay is described as follows: Radioligand binding.

Assay [2] has as its target DAT (Homo sapiens, UniProt Q01959). The assay is described as follows: Radioligand binding.

D2, sequence (P14416 whole entry): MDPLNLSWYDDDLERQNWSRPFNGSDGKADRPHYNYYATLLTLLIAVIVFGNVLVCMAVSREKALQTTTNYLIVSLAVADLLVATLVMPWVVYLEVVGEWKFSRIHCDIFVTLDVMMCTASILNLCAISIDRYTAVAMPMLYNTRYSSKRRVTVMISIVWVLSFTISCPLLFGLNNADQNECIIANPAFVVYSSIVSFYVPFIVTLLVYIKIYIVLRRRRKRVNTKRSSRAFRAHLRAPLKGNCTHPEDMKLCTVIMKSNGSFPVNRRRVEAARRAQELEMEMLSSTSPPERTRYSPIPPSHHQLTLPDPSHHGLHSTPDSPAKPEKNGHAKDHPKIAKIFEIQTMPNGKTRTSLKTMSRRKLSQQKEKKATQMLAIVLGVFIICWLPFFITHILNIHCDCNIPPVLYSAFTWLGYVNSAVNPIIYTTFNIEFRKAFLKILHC
D1, sequence (P21728 whole entry): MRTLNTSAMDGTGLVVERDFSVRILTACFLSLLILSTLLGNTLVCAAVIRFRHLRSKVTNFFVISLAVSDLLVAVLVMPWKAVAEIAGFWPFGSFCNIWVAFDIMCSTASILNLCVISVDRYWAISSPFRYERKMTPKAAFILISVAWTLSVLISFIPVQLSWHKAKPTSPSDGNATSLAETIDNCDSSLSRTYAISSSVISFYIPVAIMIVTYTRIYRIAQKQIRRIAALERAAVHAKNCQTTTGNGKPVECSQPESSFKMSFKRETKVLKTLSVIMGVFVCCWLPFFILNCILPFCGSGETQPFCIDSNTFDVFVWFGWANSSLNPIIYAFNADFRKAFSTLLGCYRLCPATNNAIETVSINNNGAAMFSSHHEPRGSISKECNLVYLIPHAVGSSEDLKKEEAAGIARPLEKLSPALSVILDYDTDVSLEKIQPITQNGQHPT
D3, sequence (P35462 whole entry): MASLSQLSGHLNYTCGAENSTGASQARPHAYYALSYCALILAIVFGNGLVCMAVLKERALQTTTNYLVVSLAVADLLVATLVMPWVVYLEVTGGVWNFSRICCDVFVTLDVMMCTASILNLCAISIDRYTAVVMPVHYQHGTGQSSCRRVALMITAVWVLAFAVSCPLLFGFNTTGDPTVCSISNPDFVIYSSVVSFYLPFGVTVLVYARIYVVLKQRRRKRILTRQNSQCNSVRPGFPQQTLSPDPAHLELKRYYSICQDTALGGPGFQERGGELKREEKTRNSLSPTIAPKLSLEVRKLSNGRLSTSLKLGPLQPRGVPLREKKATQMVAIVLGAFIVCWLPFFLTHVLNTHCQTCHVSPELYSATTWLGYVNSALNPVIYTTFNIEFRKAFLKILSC
5-HT7, sequence (P34969 whole entry): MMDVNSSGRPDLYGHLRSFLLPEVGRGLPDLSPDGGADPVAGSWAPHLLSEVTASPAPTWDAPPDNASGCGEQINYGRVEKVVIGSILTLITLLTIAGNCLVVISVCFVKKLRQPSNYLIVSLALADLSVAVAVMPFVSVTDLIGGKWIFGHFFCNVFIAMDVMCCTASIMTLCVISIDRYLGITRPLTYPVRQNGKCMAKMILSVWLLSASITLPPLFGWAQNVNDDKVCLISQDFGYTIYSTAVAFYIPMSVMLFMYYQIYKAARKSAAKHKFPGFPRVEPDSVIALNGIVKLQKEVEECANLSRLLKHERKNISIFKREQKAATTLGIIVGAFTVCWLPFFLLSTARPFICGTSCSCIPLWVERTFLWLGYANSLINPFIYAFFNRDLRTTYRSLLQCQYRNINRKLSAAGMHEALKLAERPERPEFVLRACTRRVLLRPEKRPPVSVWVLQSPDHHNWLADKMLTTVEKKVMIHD
5-HT5A, sequence (P47898 whole entry): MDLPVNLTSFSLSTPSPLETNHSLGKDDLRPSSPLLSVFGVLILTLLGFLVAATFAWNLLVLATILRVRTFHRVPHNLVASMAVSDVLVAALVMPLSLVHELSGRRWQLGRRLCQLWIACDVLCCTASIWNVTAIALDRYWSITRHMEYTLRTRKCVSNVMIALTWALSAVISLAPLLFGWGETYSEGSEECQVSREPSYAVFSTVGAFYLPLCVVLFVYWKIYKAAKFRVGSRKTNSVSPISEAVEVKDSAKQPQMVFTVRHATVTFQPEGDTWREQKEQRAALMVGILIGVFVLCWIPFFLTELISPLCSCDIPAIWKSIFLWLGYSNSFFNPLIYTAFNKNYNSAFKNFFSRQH
5-HT1E, sequence (P28566 whole entry): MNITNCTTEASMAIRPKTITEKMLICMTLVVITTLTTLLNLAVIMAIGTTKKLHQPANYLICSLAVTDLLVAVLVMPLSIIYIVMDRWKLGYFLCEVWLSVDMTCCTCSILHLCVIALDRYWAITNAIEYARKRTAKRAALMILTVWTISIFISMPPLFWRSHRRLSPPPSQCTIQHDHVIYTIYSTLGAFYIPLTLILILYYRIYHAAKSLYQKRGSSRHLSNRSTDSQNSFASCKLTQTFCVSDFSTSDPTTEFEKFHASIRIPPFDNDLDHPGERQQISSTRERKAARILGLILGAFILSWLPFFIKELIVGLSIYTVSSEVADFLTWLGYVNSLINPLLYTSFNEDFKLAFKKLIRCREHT
5-HT1B, sequence (P28222 whole entry): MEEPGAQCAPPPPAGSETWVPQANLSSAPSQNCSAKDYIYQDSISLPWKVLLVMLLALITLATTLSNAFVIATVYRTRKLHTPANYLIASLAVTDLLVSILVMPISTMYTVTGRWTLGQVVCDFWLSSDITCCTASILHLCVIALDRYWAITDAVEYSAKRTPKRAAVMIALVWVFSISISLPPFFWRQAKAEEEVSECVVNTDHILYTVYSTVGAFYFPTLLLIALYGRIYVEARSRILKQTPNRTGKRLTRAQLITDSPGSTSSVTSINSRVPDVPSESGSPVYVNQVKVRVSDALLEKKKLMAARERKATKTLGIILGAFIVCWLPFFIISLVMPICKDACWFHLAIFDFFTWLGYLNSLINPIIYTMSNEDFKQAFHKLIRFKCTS
DAT (Homo sapiens, UniProt Q01959), sequence (Q01959 whole entry): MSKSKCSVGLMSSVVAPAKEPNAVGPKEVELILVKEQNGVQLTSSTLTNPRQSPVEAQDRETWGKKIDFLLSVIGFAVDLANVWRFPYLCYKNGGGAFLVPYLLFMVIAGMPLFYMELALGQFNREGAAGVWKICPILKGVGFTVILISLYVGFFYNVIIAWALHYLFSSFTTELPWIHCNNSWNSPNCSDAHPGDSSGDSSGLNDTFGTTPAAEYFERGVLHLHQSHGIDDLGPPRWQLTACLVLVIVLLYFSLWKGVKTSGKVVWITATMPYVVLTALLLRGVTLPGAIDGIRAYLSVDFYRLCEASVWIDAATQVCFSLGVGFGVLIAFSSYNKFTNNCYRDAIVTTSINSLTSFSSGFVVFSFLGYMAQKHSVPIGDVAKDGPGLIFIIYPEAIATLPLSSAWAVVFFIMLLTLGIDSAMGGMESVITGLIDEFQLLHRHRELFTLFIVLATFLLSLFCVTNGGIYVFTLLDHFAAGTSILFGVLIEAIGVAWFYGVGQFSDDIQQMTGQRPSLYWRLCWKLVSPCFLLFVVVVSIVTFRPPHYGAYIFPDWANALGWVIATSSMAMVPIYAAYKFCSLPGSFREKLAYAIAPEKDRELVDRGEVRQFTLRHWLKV
5-HT2A, sequence (P28223 whole entry): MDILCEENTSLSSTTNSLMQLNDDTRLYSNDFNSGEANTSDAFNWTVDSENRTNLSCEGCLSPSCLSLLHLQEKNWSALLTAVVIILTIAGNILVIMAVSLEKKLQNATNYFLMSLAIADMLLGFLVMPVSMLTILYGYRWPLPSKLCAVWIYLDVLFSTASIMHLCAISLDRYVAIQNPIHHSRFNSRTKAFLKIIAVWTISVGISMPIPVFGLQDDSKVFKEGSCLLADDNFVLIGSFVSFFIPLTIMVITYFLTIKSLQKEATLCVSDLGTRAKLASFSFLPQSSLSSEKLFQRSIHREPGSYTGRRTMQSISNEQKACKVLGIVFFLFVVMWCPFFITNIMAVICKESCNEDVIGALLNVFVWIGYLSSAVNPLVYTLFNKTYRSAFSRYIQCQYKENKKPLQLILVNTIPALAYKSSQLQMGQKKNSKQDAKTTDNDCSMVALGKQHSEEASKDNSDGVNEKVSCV
β1, sequence (P08588 whole entry): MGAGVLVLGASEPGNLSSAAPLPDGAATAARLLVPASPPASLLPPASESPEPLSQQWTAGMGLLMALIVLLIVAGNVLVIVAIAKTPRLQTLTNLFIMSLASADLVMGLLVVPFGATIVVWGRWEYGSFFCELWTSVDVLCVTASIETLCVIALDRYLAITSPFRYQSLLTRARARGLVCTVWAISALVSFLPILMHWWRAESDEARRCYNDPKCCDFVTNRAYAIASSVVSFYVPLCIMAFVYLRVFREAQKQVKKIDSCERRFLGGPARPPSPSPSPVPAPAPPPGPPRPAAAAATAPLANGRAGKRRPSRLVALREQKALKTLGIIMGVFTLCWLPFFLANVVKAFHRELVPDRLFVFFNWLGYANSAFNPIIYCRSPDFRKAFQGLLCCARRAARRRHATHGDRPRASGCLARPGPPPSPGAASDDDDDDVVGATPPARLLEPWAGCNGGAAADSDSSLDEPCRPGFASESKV

In general, EC50 refers to the midpoint of the concentration-response curve. A low value points to a more potent agent. One may read the Emax as the size of the effect at its maximum, as opposed to the concentration needed. As usually defined, the Ki is the dissociation constant of the complex between target and ligand, obtained from inhibition or displacement. Regarding `COc1cc2c(cc1C)CC(N)C2` (stereo not shown) [MMAI, 5-methoxy-6-methyl-2-aminoindan], the EC50 is greater than 10 µM at DAT [1] and 0.031 ± 0.005 µM on SERT. Further, at DAT [1], the DAT/NET ratio is reported as greater than 0.31. Also, on DAT [1], the DAT/SERT ratio is recorded as greater than 0.003. The “fold lower release potency at DAT” value on DAT [1] came to 100 fold. Moreover, the Emax at SERT is 99%. Moreover, the Ki is 1.08 µM on 5-HT1A; 2.78 µM on 5-HT1B; greater than 10 µM on 5-HT1E; greater than 10 µM on 5-HT2A; greater than 10 µM on 5-HT5A; 1.01 µM at 5-HT7. Further, the Ki on α2A was 0.724 ± 0.477 µM; on α2B, 1.23 µM; at β1, greater than 10 µM; at D1, greater than 10 µM; at D2, greater than 10 µM; at D3 it was greater than 10 µM. Moreover, the Ki on D4 and at DAT [2] was greater than 10 µM each time. Further, on α2A, the “fold lower affinity for α2A compared to 2-AI” value was determined as 5 fold. In addition, the “fold lower affinity for α2B compared to 2-AI” value on α2B was found to be 5 fold.

Consider `NC1Cc2cc3c(cc2C1)OCO3` [MDAI, 5,6-methylenedioxy-2-aminoindan], for which the EC50 came to 1.33 µM at DAT [1] and 0.114 ± 0.015 µM on SERT. The DAT/NET ratio on DAT [1] is reported as 0.09. Moreover, the DAT/SERT ratio at DAT [1] is recorded as 0.08. The Emax at DAT [1] was 113%; on SERT it was 102%. Also, the “fold lower release potency at DAT” value at DAT [1] is listed as 10 fold. In addition, the Ki on 5-HT1A, on 5-HT1B, at 5-HT1E, at 5-HT2A, at 5-HT5A and at 5-HT7 was greater than 10 µM throughout. The Ki on α2A was 0.322 ± 0.114 µM; on α2B, 1.12 µM; at β1 it was greater than 10 µM; at D1, greater than 10 µM; on D2, greater than 10 µM; at D3, greater than 10 µM. Moreover, the Ki on D4 and at DAT [2] was greater than 10 µM in each case.

Turning to `COc1ccc2c(c1)CC(N)C2` (stereo not shown) [5-MeO-AI, 5-methoxy-2-aminoindan], the EC50 on DAT [1] was found to be 2.65 µM; at SERT, 0.134 ± 0.013 µM. Also, the DAT/NET ratio at DAT [1] stood at 0.33. Also, at DAT [1], the DAT/SERT ratio was 0.05. In addition, the Emax on DAT [1] is 117%; on SERT, 104%. On DAT [1], the “fold lower release potency at DAT” value turned out to be 20 fold. The Ki on 5-HT1A was 2.5 µM; on 5-HT1B, greater than 10 µM; on 5-HT1E it was greater than 10 µM; on 5-HT2A, greater than 10 µM; on 5-HT5A, greater than 10 µM; on 5-HT7, greater than 10 µM. Also, the Ki at α2A is 0.751 ± 0.338 µM; on α2B, 1.55 µM; at β1, greater than 10 µM; at D1 it was greater than 10 µM; on D2, greater than 10 µM; at D3, greater than 10 µM. Further, the Ki at D4 and on DAT [2] was greater than 10 µM throughout. Moreover, on α2A, the “fold lower affinity for α2A compared to 2-AI” value was found to be 5 fold. In addition, the “fold lower affinity for α2B compared to 2-AI” value at α2B is listed as 5 fold.

With `NC1Cc2ccccc2C1` [2-AI, 2-aminoindan], the values for the concentration for a half-maximal effect (EC50) at DAT [1] and at SERT were 0.439 ± 0.038 µM and greater than 10 µM, respectively. Also, at DAT [1], the DAT/NET ratio is 0.20. The DAT/SERT ratio on DAT [1] is given as greater than 22.78. The maximum response (Emax) on DAT [1] was 106%. The Ki on 5-HT1A, at 5-HT1B, at 5-HT1E, on 5-HT2A, on 5-HT5A and on 5-HT7 was greater than 10 µM throughout. Further, the Ki is 0.134 ± 0.031 µM on α2A; 0.211 ± 0.081 µM on α2B; greater than 10 µM at β1; greater than 10 µM on D1; greater than 10 µM on D2; greater than 10 µM at D3. Besides, the Ki on D4 and on DAT [2] was greater than 10 µM each time.
